Values joined by “and” are separate entries in the source; they are usually repeats but may differ in a detail not shown here. Identical values can stand only once. “Also recorded” adds a separate entry of the source. Like-named read-outs stand apart in the source and are kept apart here.
Key:
[1] = target: T1, Gal4-HNF4α (human HNF4α LBD) (Homo sapiens, UniProt P41235); test: Hybrid Gal4-HNF4α reporter gene assay in transiently transfected HEK293T cells; type: cell-based; conditions: for Primary Screen (Fold Act., 50 µM): mean of two biologically independent repeats, vs. 0.2% DMSO; for Follow-up HNF4α (fold activation of reporter activity) / EC50: at least four repeats; for HNF4a-screening_activity_(mean_of_n=2): Table S1, primary screening; for HNF4α Ligand Type: Gal4-HNF4α assay; for EC50: read-out: Validated HNF4α Modulation EC50
T1 construct: uniprot entry: P41235-1, residues 142-377; expressed in transfected cells; host or cells: HEK293T
T1 sequence (P41235 142-377): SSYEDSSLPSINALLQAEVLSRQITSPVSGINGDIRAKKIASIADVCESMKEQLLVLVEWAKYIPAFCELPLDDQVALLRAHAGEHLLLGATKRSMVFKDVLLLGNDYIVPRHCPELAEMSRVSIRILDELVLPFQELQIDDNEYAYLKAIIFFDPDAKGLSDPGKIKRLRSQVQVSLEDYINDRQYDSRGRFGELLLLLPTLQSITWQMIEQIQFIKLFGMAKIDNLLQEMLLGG

[2] = tested on: Gal4–VP16; test: Gal4-VP16 control experiment (reporter gene assay, HEK293T cells); type: cell-based; conditions: mean ± SD
Experimental: The frame and sequence of the fusion plasmid were verified by sequencing. pFR-Luc (Stratagene) was used as reporter plasmid and pRL-SV40 (Promega, Madison, WI, USA) served for normalization of transfection efficiency and cell growth. The Gal4-VP16 [25] expressed from plasmid pECE-SV40-Gal4-VP16 [26] […] Assay Procedure: HEK293T cells were grown in Dulbecco’s Modified Eagle Medium (DMEM) high glucose, supplemented with 10% Fetal Bovine Serum (FCS), sodium pyruvate (1 mM), penicillin (100 U/mL), and streptomycin (100 μg/mL) at 37 °C and 5% CO2. The day before transfection, HEK293T cells were seeded in 96-well plates (3.0·10^4 cells/well). Before transfection, the medium was changed to Opti-MEM without supplements. Transient transfection was carried out using Lipofectamine LTX reagent (Invitrogen, Carlsbad, CA, USA) according to the manufacturer’s protocol with pFR-Luc (Stratagene), pRL-SV40 (Promega), and the pFA-CMV-hHNF4α-LBD clone or pECE-SV40-Gal4-VP16 for control experiments. Five hours after transfection, the medium was changed to Opti-MEM supplemented with penicillin (100 U/mL), streptomycin (100 μg/mL), now additionally containing 0.1% DMSO (0.2% in the primary screen) and the respective test compounds or 0.1% DMSO (0.2% in the primary screen) alone as the untreated control. In the primary screening, the core set of the Prestwick Drug Fragment Library (Prestwick Chemical, Illkirch, France) was tested at 50 µM concentration in two biologically independent repeats. In the follow-up and dose-response profiling, each concentration was tested in duplicates in at least three biologically independent repeats. Following overnight (12−14 h) incubation with the test compounds, cells were assayed for luciferase activity using Dual-Glo™ luciferase assay system (Promega) according to the manufacturer’s protocol. Luminescence was measured with a Tecan Spark 10M luminometer (Tecan Group Ltd., Männedorf, Switzerland). […] Fold activation was obtained by dividing the mean RLU of test compounds at a respective concentration by the mean RLU of untreated control.

[3] = tested on: HNF4α-regulated gene fructose-1,6-bisphosphatase 1 (FBP1); test: FBP1 mRNA expression in HepG2 cells by qRT-PCR; type: cell-based, human; conditions: 8 h, vs 0.1% DMSO
[4] = target: T2, recombinant HNF4α LBD protein (Homo sapiens, UniProt P41235); test: Isothermal titration calorimetry (ITC); type: binding; conditions: for Kd: 25 °C, protein 10–20 µM titrated with ligand 50–200 µM, read-out: HNF4α LBD Binding (Kd); for n (ITC binding model): Figure 4
T2 construct: The LDB domain of HNF4α (aa. 148–377) subcloned into pNIC28-Bsa4; His6 (N); made in house; host or cells: E. coli Rosetta
T2 sequence (P41235 148-377): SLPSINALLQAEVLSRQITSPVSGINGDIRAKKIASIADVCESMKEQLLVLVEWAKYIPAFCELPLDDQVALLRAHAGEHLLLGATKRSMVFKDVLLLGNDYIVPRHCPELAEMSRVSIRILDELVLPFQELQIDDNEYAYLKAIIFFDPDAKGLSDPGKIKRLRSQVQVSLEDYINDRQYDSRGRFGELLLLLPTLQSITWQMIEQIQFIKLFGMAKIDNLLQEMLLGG
Experimental: The recombinant protein harboring an N-terminal His6 tag was initially purified by Ni^2+-affinity chromatography. Size exclusion chromatography was performed using Superdex S75 column (GE Healthcare, Chicago, IL, USA.), and the pure protein was stored in a buffer containing 20 mM 4-(2-hydroxyethyl)-1-piperazineethanesulfonic acid (HEPES) pH 7.5, 200 mM NaCl, 0.5 mM tris(2-carboxyethyl)phosphine (TCEP), and 5% w/v glycerol.
Isothermal titration calorimetry was performed on an Affinity ITC (TA Instruments, New Castle, DE, USA). The instrument was equilibrated to 25 °C and the stirring rate was set to 75 rpm. HNF4α buffer (20 mM HEPES pH 7.5, 200 mM NaCl, 0.5 mM TCEP, 5% w/v glycerol) with up to 1% DMSO (final concentration) was used for ITC. The recombinant HNF4α LBD protein (10–20 µM, 172 µL) was titrated with fragments (4, 6, 7, 9, 10; 50–200 µM; dissolved in the same buffer). A total of 20-30 injections with a volume of 2.5–4 µL and with an interval of 200–300 s were performed. As a control experiment, HNF4α protein was titrated with buffer, and the buffer was titrated with test compound to detect dissolution artifacts with otherwise identical experimental parameters. Data analysis was performed with NanoAnalyze^TM Software (TA Instruments, New Castle, DE, USA.) using an independent binding model.

[5] = target: the molecule itself; test: ITC; HNF4α LBD protein alone; dimer dissociation upon dilution (seen when inverse ITC experiments were tried); dimer to monomers
[6] = significance of Gal4-HNF4α follow-up vs Gal4-VP16 control at the same concentration

Cc1cc(C(C)(C)CC(C)(C)C)ccc1O [compound 1, Cc1cc(ccc1O)C(C)(C)CC(C)(C)C]
Primary Screen (Fold Act., 50 µM) ([1]; 50 µM): 2.48 fold activation
Follow-up HNF4α (fold activation of reporter activity) ([1]; 50 µM, mean ± SD): 1.1 ± 0.2 (50 µM) fold activation
HNF4a-screening_activity_(mean_of_n=2) ([1]; 50 µM, listed as Prestw-Frag-1016): 2.483 and 1.264
VP16 Control (fold activation of reporter activity) ([2]; 50 µM): 0.80 ± 0.07 (50 µM) fold activation

COc1ccc2c(c1)OCC2=O [compound 2, COc1ccc2C(=O)COc2c1]
Primary Screen (Fold Act., 50 µM) ([1]; 50 µM): 1.55 fold activation
Follow-up HNF4α (fold activation of reporter activity) ([1]; 50 µM, mean ± SD): 1.3 ± 0.2 (50 µM) fold activation
HNF4a-screening_activity_(mean_of_n=2) ([1]; 50 µM, listed as Prestw-Frag-1362): 0.8621 and 1.554
VP16 Control (fold activation of reporter activity) ([2]; 50 µM): 1.3 ± 0.3 (50 µM) fold activation

Nc1nc2cc(C(=O)c3ccccc3)ccc2[nH]1 [compound 3]
Primary Screen (Fold Act., 50 µM) ([1]; 50 µM): 2.09 fold activation
Follow-up HNF4α (fold activation of reporter activity) ([1]; 50 µM, mean ± SD): 1.5 ± 0.2 (50 µM) fold activation
VP16 Control (fold activation of reporter activity) ([2]; 50 µM): 1.7 ± 0.3 (50 µM) fold activation

O=C(Nc1ccccc1Cl)c1ccccc1O [compound 4, Oc1ccccc1C(=O)Nc1ccccc1Cl]
FBP1 mRNA expression ([3]; HepG2, 50 µM): promoted FBP1 expression; also recorded: tendency to enhanced FBP1 mRNA levels

CC(C)CC(N)C1(c2ccc(Cl)cc2)CCC1 (centres unmarked) [compound 5, CC(C)CC(N)C1(CCC1)c1ccc(Cl)cc1]
Primary Screen (Fold Act., 50 µM) ([1]; 50 µM): 1.80 fold activation
Follow-up HNF4α (fold activation of reporter activity) ([1]; 50 µM, mean ± SD): tendency for HNF4α modulation
Follow-up HNF4α (fold activation of reporter activity) ([1]; 100 µM, mean ± SD): 2.5 ± 0.2 (100 µM) fold activation
HNF4α Ligand Type [1]: Agonist
HNF4a-screening_activity_(mean_of_n=2) ([1]; 50 µM, listed as Prestw-Frag-1566): 0.9114 and 1.797
EC50 ([1]; dose-response, mean ± SD): > 100 µM
HNF4α vs. VP16 (p, t-test) [1, 6]: p < 0.0001 (***)
VP16 Control (fold activation of reporter activity) ([2]; 100 µM): 1.1 ± 0.1 (100 µM) fold activation

Nc1ncn([C@@H]2O[C@H](CO)[C@@H](O)[C@H]2O)c(=O)n1 [compound 6, Nc1ncn([C@@H]2O[C@H](CO)[C@@H](O)[C@H]2O)c(=O)n1]
HNF4α vs. VP16 (p, t-test) [1]: p = 0.0034 (**)
FBP1 mRNA expression ([3]; HepG2, 10 µM): significantly promoted FBP1 expression

Nc1ncns1 [compound 7, Nc1ncns1]
Primary Screen (Fold Act., 50 µM) ([1]; 50 µM): 2.36 fold activation
Follow-up HNF4α (fold activation of reporter activity) ([1]; 50 µM, mean ± SD): 3.0 ± 0.3 (50 µM) fold activation
HNF4α Ligand Type [1]: Agonist
HNF4a-screening_activity_(mean_of_n=2) ([1]; 50 µM): 2.362
EC50 ([1]; dose-response, mean ± SD): 31 µM
Validated HNF4α Modulation maximum fold act. ([1]; maximum fold increase in reporter activity relative to 0.1% DMSO): 3.8 fold act. and 3.8 ± 0.6 fold act.
HNF4α vs. VP16 (p, t-test) [1, 6]: p < 0.0001 (***)
FBP1 mRNA expression ([3]; HepG2, 50 µM): promoted FBP1 expression; also recorded: tendency to enhanced FBP1 mRNA levels
VP16 Control (fold activation of reporter activity) ([2]; 50 µM): 1.4 ± 0.1 (50 µM) fold activation
Kd [4]: ~7 µM and 7 µM
n (ITC binding model) [4]: 0.9

Cc1nc(-c2ccccc2)c(-c2ccccc2)o1 [compound 8]
Follow-up HNF4α (fold activation of reporter activity) ([1]; 50 µM, mean ± SD): 1.1 ± 0.2 (50 µM) fold activation
VP16 Control (fold activation of reporter activity) ([2]; 50 µM): 0.92 ± 0.07 (50 µM) fold activation

O=C(O)c1cc(-c2ccccc2)ccc1O [compound 9, OC(=O)c1cc(ccc1O)-c1ccccc1]
FBP1 mRNA expression ([3]; HepG2, 50 µM): decreased FBP1 mRNA levels; also recorded: robustly decreased FBP1 expression

OC(c1ccc(F)cc1)c1ccc(F)cc1 [compound 10]
Follow-up HNF4α (fold activation of reporter activity) ([1]; 50 µM, mean ± SD): 0.75 ± 0.05 (50 µM) fold activation
HNF4α Ligand Type [1]: inverse HNF4α agonism; also recorded: Inverse agonist
IC50 ([1]; dose-response, inverse agonism, mean ± SD, read-out: Validated HNF4α Modulation IC50): 24 µM
HNF4α vs. VP16 (p, t-test) [1, 6]: p = 0.0057 (**)
FBP1 mRNA expression ([3]; HepG2, 50 µM): decreased FBP1 mRNA levels; also recorded: robustly decreased FBP1 expression
VP16 Control (fold activation of reporter activity) ([2]; 50 µM): 1.1 ± 0.2 (50 µM) fold activation
Kd [4]: ~1.7 µM and 1.7 µM
n (ITC binding model) [4]: 1.1

Cc1cc(=O)n(-c2ccc(C)c(C)c2)[nH]1 [compound 11, Cc1cc(=O)n([nH]1)-c1ccc(C)c(C)c1]
Primary Screen (Fold Act., 50 µM) ([1]; 50 µM): 0.32 fold activation
Follow-up HNF4α (fold activation of reporter activity) ([1]; 50 µM, mean ± SD): tendency for HNF4α modulation
Follow-up HNF4α (fold activation of reporter activity) ([1]; 100 µM, mean ± SD): 0.21 ± 0.03 (100 µM) fold activation
HNF4a-screening_activity_(mean_of_n=2) ([1]; 50 µM): 0.3184
VP16 Control (fold activation of reporter activity) ([2]; 100 µM): 0.21 ± 0.02 (100 µM) fold activation

B1: recombinant HNF4α LBD protein (hepatocyte nuclear factor 4α ligand-binding domain, aa. 148–377) (domain or fragment, human, UniProt P41235-1 148-377, looked up)
chain: T2 sequence (P41235 148-377)
notes: 148-377, subcloned into pNIC28-Bsa4; UniProt entry and species are printed for the Gal4-HNF4α reporter construct, not expressly for the E. coli construct; also called NR2A1
binding result [5]: binds

Source: publication PMC7660650, “Chemical Starting Matter for HNF4α Ligand Discovery and Chemogenomics” (International Journal of Molecular Sciences, 2020)
